The values that follow are results of earlier work, collected in patent US20240252431A1, “PULMONARY BIGUANIDE FORMULATIONS AND DELIVERY DEVICES” (Onconox Inc., priority 2021, published 2024).

The subject of series [1] is lung fibrosis elicited by bleomycin. As to conditions: mouse bleomycin model; treatment starting three weeks after lung injury, continuing five weeks.
The subject of series [2] is radiation induced pneumonitis. As to conditions: in vivo.

As to `CN(C)C(=N)N=C(N)N` [Metformin, metformin], the “effect on established lung fibrosis” value in series [1] was “reverse established lung fibrosis”. Further, the “effect on radiation induced pneumonitis” value in series [2] was “protect against radiation induced pneumonitis”.
